target: XIAP BIR3 (N-His-Tb-BIR3(241-356, XIAP)) (Homo sapiens (Human), UniProt P98170); format: binding; conditions: 130 nM N-His-Tb-BIR3(241-356, XIAP), 1.4 nM fluoresceinated modified SMAC peptide, 60 minutes room temperature; read-out: XIAP BIR3 FPA IC50
Sequence (P98170 241-356): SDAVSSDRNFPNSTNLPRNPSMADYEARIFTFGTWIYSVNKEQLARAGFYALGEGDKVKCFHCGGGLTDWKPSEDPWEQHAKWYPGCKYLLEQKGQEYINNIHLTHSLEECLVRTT

Row | Compound | IC50
1 | CN[C@@H](C)C(=O)N[C@H](C(=O)N1C[C@@H](NC(=O)c2ccc(CN(C(=O)[C@@H]3Cc4ccccc4CN3C(=O)[C@@H](NC(=O)[C@H](C)NC)C(C)(C)C)[C@H](C)c3cccc(OC)c3)cc2)C[C@H]1C(=O)N[C@@H]1CCCc2ccccc21)C(C)(C)C [Example 3, (S)-2-((S)-3,3-Dimethyl-2-((S)-2-(methylamino)propanamido)butanoyl)-N-(4-(((3S,5S)-1-((S)-3,3-dimethyl-2-((S)-2-(methylamino)propanamido)butanoyl)-5-(((R)-1,2,3,4-tetrahydronaphthalen-1-yl)carbamoyl)pyrrolidin-3-yl)carbamoyl)benzyl)-N-((R)-1-(3-methoxyphenyl)ethyl)-1,2,3,4-tetrahydroisoquinoline-3-carboxamide] | 60 nM
2 | CN[C@@H](C)C(=O)N[C@H](C(=O)N1C[C@@H](NC(=O)c2ccc(CN(C(=O)[C@@H]3Cc4ccccc4CN3C(=O)[C@@H](NC(=O)[C@H](C)NC)C(C)(C)C)[C@H](C)c3ccc(F)cc3)cc2)C[C@H]1C(=O)N[C@@H]1CCCc2ccccc21)C(C)(C)C [Example 4, (S)-2-((S)-3,3-Dimethyl-2-((S)-2-(methylamino)propanamido)butanoyl)-N-(4-(((3S,5S)-1-((S)-3,3-dimethyl-2-((S)-2-(methylamino)propanamido)butanoyl)-5-(((R)-1,2,3,4-tetrahydronaphthalen-1-yl)carbamoyl)pyrrolidin-3-yl)carbamoyl)benzyl)-N-((R)-1-(4-fluorophenyl)ethyl)-1,2,3,4-tetrahydroisoquinoline-3-carboxamide] | 100 nM
3 | CN[C@@H](C)C(=O)N[C@H](C(=O)N1C[C@@H](NC(=O)c2ccc(CN(C(=O)[C@@H]3Cc4ccccc4CN3C(=O)[C@@H](NC(=O)[C@H](C)NC)C(C)(C)C)[C@H](C)c3ccccc3Cl)cc2)C[C@H]1C(=O)N[C@@H]1CCCc2ccccc21)C(C)(C)C [Example 5, (S)-N-((R)-1-(2-Chlorophenyl)ethyl)-2-((S)-3,3-dimethyl-2-((S)-2-(methylamino)propanamido)butanoyl)-N-(4-(((3S,5S)-1-((S)-3,3-dimethyl-2-((S)-2-(methylamino)propanamido)butanoyl)-5-(((R)-1,2,3,4-tetrahydronaphthalen-1-yl)carbamoyl)pyrrolidin-3-yl)carbamoyl)benzyl)-1,2,3,4-tetrahydroisoquinoline-3-carboxamide] | 220 nM
4 | CCC[C@H](c1ccccc1)N(Cc1ccc(C(=O)N[C@H]2C[C@@H](C(=O)N[C@@H]3CCCc4ccccc43)N(C(=O)[C@@H](NC(=O)[C@H](C)NC)C(C)(C)C)C2)cc1)C(=O)[C@@H]1Cc2ccccc2CN1C(=O)[C@@H](NC(=O)[C@H](C)NC)C(C)(C)C [Example 7, (S)-2-((S)-3,3-Dimethyl-2-((S)-2-(methylamino)propanamido)butanoyl)-N-(4-(((3S,5S)-1-((S)-3,3-dimethyl-2-((S)-2-(methylamino)propanamido)butanoyl)-5-(((R)-1,2,3,4-tetrahydronaphthalen-1-yl)carbamoyl)pyrrolidin-3-yl)carbamoyl)benzyl)-N-((R)-1-phenylbutyl)-1,2,3,4-tetrahydroisoquinoline-3-carboxamide] | 190 nM
5 | CN[C@@H](C)C(=O)N[C@H](C(=O)N1Cc2ccccc2C[C@H]1CN(CCc1ccccc1)C(=O)c1ccc(C(=O)N[C@H]2C[C@@H](C(=O)N[C@@H]3CCCc4ccccc43)N(C(=O)[C@@H](NC(=O)[C@H](C)NC)C(C)(C)C)C2)cc1)C(C)(C)C [Example 10, N^1-(((S)-2-((S)-3,3-Dimethyl-2-((S)-2-(methylamino)propanamido)butanoyl)-1,2,3,4-tetrahydroisoquinolin-3-yl)methyl)-N^4-((3S,5S)-1-((S)-3,3-dimethyl-2-((S)-2-(methylamino)propanamido)butanoyl)-5-(((R)-1,2,3,4-tetrahydronaphthalen-1-yl)carbamoyl)pyrrolidin-3-yl)-N^1-phenethylterephthalamide] | 60 nM
6 | CN[C@@H](C)C(=O)N[C@H](C(=O)N1C[C@@H](NC(=O)c2ccc(CN(Cc3cccc(Cl)c3Cl)C(=O)[C@@H]3Cc4ccccc4CN3C(=O)[C@@H](NC(=O)[C@H](C)NC)C(C)(C)C)cc2)C[C@H]1C(=O)N[C@@H]1CCCc2ccccc21)C(C)(C)C [Example 11, (S)-N-(2,3-Dichlorobenzyl)-2-((S)-3,3-dimethyl-2-((S)-2-(methylamino)propanamido)butanoyl)-N-(4-(((3S,5S)-1-((S)-3,3-dimethyl-2-((S)-2-(methylamino)propanamido)butanoyl)-5-(((R)-1,2,3,4-tetrahydro-naphthalen-1-yl)carbamoyl)pyrrolidin-3-yl)carbamoyl)benzyl)-1,2,3,4-tetra-hydroisoquinoline-3-carboxamide] | 70 nM
7 | CN[C@@H](C)C(=O)N[C@H](C(=O)N1C[C@@H](NC(=O)c2ccc(CN(CCc3ccc4ccccc4c3)C(=O)[C@@H]3Cc4ccccc4CN3C(=O)[C@@H](NC(=O)[C@H](C)NC)C(C)(C)C)cc2)C[C@H]1C(=O)N[C@@H]1CCCc2ccccc21)C(C)(C)C [Example 12, (S)-2-((S)-3,3-Dimethyl-2-((S)-2-(methylamino)propanamido)butanoyl)-N-(4-(((3S,5S)-1-((S)-3,3-dimethyl-2-((S)-2-(methyl-amino)propanamido)butanoyl)-5-(((R)-1,2,3,4-tetrahydro-naphthalen-1-yl)carbamoyl)pyrrolidin-3-yl)carbamoyl)benzyl)-N-(2-(naphthalen-2-yl)ethyl)-1,2,3,4-tetrahydro-isoquinoline-3-carboxamide] | 90 nM
8 | CN[C@@H](C)C(=O)N[C@H](C(=O)N1C[C@@H](NC(=O)c2ccc(CN(Cc3ccccc3)C(=O)[C@@H]3Cc4ccccc4CN3C(=O)[C@@H](NC(=O)[C@H](C)NC)C(C)(C)C)cc2)C[C@H]1C(=O)N[C@@H]1CCCc2ccccc21)C(C)(C)C [Example 13, (S)-N-Benzyl-2-((S)-3,3-dimethyl-2-((S)-2-(methylamino)propanamido)butanoyl)-N-(4-(((3S,5S)-1-((S)-3,3-dimethyl-2-((S)-2-(methylamino)propanamido)butanoyl)-5-(((R)-1,2,3,4-tetrahydro-naphthalen-1-yl)carbamoyl)pyrrolidin-3-yl)carbamoyl)benzyl)-1,2,3,4-tetra-hydroisoquinoline-3-carboxamide] | 40 nM
9 | CN[C@@H](C)C(=O)N[C@H](C(=O)N1C[C@@H](NC(=O)c2ccc(CN(Cc3ccc4ccccc4c3)C(=O)[C@@H]3Cc4ccccc4CN3C(=O)[C@@H](NC(=O)[C@H](C)NC)C(C)(C)C)cc2)C[C@H]1C(=O)N[C@@H]1CCCc2ccccc21)C(C)(C)C [Example 14, (S)-2-((S)-3,3-Dimethyl-2-((S)-2-(methyl-amino)propanamido)butanoyl)-N-(4-(((3S,5S)-1-((S)-3,3-dimethyl-2-((S)-2-(methylamino)propanamido)butanoyl)-5-(((R)-1,2,3,4-tetra-hydronaphthalen-1-yl)carbamoyl)pyrrolidin-3-yl)carbamoyl)benzyl)-N-(naphthalen-2-ylmethyl)-1,2,3,4-tetrahydro-isoquinoline-3-carboxamide] | 40 nM

Source: patent publication US9603889B2, “IAP antagonists” (BRISTOL-MYERS SQUIBB COMPANY, priority 2012, dated 2017)
